Laboratory results reported in patent US7144731B2, “SCF antibody compositions and methods of using the same” (Amgen Inc., priority 1989, dated 2006).

Assays:
[1] = molecular target: T1, SCF receptor (OCIM1 plasma membrane) (Homo sapiens, UniProt P10721); test: SCF radioreceptor assay; format: binding
T1 construct: endogenous in cells; host or cells: OCIM1 human erythroleukemic cells, plasma membrane preparation
Experimental: OCIM1 cells, [Papayannopoulou et al., Blood 72:1029–1038 (1988)] are a human erythroleukemic cell line expressing many human SCF receptors per cell. These cells are grown in Iscove's Modified Dulbecco's Medium, 10% FBS, and 1× glutamine and passaged 3 times a week to 1×10^5 cells/ml.
Preparation of the OCIM1 plasma membrane is as follows with all steps performed on ice.
First, 40 T175 flasks of cells were grown-up in OCIM1 culture medium, for a total of 1.9×10^9 […]. The conditioned medium and 1 mM Phenyl Methyl Sulfonyl Fluoride (PMSF) protease inhibitor, was spun down in 8×250 ml tubes at 1000 rpm for 10 minutes at 4° C. Cells were washed with PBS and repelleted in 4×50 ml centrifuge tubes at 1000 rpm for 10 minutes at 4° C. Cells were resuspended in 20 ml ice cold PBS with glucose sodium pyruvate (Gibco Cat #310-4287). The 20 ml cell solution was put into a pre-pressurized, pre-chilled (4° C.) “cell bomb” designed to lyse the cells. Cells were pressurized at 400–650 PSI for 10 minutes to establish equilibrium. When the pressure is released cell lysis occurs.
At this point the cells were checked for the percentage of cell lysis. 90% lysis was common. The cell suspension was resuspended in 80 mls sucrose buffer (0.25M sucrose, 10 mM Tris, 1 mM EDTA in double distilled (dd) H2O, filtered through a 0.45 u filter, pH 7.0) and divided between two 40 ml screwcap tubes. Tubes were spun at 5900 RPM for 10 minutes in a Beckman J2-21 centrifuge, JA-20 rotor at 4° C. The supernatants were saved and spun one more time as above to further remove any unwanted material. Supernatants were saved and distributed equally into 2 nalgene 40 ml centrifuge tubes. These supernatants were centrifuged at 16,000 RPM 4° C. for 30 min. in J2-21 centrifuge, JA-20 rotor. These supernatants were discarded being careful to save pellets. Each pellet was resuspended in sucrose buffer so there were 20 mls per tube in 4×36 ml plastic ultracentrifuge tubes. Using a 20 ml syringe and a large trochar, the solution was carefully underlayered in each tube with ice cold 36% sucrose solution (36.1 g sucrose/100 mls ddH2O), bringing the level of the liquid to within 2 mm of the top of the tube. Without disturbing the interface, each tube was carefully placed into each of […] titanium ultracentrifuge tubes. Tubes were centrifuged at 27,000 RPM, 4° C. for 75 minutes in an ultracentrifuge. These tubes were carefully removed from the rotor and from titanium buckets, placed in a rack with the 36% sucrose interface visible. The membraneous material at the interface was collected with a pasteur pipet and transfered into 2 clean nalgene 40 ml centrifuge tubes. Volume was brought up to 40 mls with ice cold sucrose buffer. Tubes were balanced and centrifuged as before at 5900 RPM in J2-21 centrifuge. […]

UT-7 cells = test: UT-7 ^3H-thymidine uptake assay; format: cell-based, human
Experimental: UT-7 cells are a human megakaryocyte, huGM-CSF responsive cell line obtained from John Adamson, New York Blood Center, New York, N.Y. UT-7 cells were cultured in Iscove's Modified Dulbecco's Medium, 10% FBS, 1× glutamine, 5 \g/ml huGM-CSF. Cells are passaged twice a week at 1×10^5 cells/ml.
Cells were washed twice in phosphate buffered saline (PBS) and resuspended in RPMI medium with 4% FBS and glutamine penicillin streptomycin (GPS) (Irvine Scientific Cat No. 9316 used at 1% volume per volume) at 4×10^4 cells/ml before use. Human SCF along with specific samples were added to 4000 cells/well in 96 well plates and were cultured for 72 hrs. 0.5 uCi/well of ^3H-Thymidine was then added to each plate, plates were harvested and counted 4 hours later.

[2] = tested on: murine mast cell line, MC/9; test: MC/9 ^3H-thymidine uptake assay; format: cell-based; conditions: COS-1 supernatants, concentrations tested
Experimental: Another useful biological activity of both naturally-derived and recombinant rat SCF is the ability to cause the proliferation of the […] murine mast cell line, MC/9 (ATCC CRL 8306). MC/9 cells are cultured with a source of […] according to the ATCC CRL 8306 protocol. The medium used in the bioassay is RPMI 1640, 4% fetal bovine serum, 5×10^−5M 2-mercaptoethanol, and 1× glutamine-pen-strep. The MC/9 cells proliferate in response to SCF without the requirement for other growth factors. This proliferation is measured by first culturing the cells for 24 h without growth factors, plating 5000 cells in each well of 96 well plates with test sample for 48 h, pulsing for 4 h with 0.5 uCi ^3H-thymidine (specific activity 20 Ci/mmol), harvesting the solution onto glass fiber filters, and then measuring specifically-bound radioactivity. This assay was used in the purification of mammalian cell derived rat SCF after the ACA 54 gel filtration step, section C2 of this Example. Typically, SCF caused a 4–10 fold increase in CPM over background.

human bone marrow = test: Human bone marrow colony assay; format: cell-based; conditions: for Colony #/100,000 cells ± SD: COS-1 CM, 20 U/ml EPO, 14 days, colonies ≥0.2 mm
Experimental: The cDNA of human SCF corresponding to amino acids 1–162 obtained by PCR reactions outlined in Example 3D, was expressed in COS-1 cells as described for the rat SCF in Example 4. COS-1 supernatants were assayed on human bone marrow as well as in the murine HPP-CFC and MC/9 assays. […] The culture conditions of the assay were as follows: human bone marrow from healthy volunteers was centrifuged over Ficoll-Hypaque gradients (Pharmacia) and cultured in 2.1% methyl cellulose, 30% fetal calf serum, 6×10^−5 M 2-mercaptoethanol, 2 mM glutamine, ISCOVE'S medium (GIBCO), 20 U/ml EPO, and 1×10^5 cells/ml for 14 days in a humidified atmosphere containing 7% O2, 10% CO2, and 83% N2. Only those colonies of 0.2 mm in size or larger are indicated.
Recombinant human SCF was tested in agar colony assays on human bone marrow in combination with other growth factors as described above.

[3] = tested on: 5-FU treated mouse bone marrow cells; test: HPP-CFC assay; format: cell-based; conditions: COS-1 supernatants, concentrations tested
Source text: There are a variety of biological activities which can be attributed to the natural mammalian rat SCF as well as the recombinant rat SCF protein. One such activity is its effect on early hematopoietic cells. This activity can be measured in a High Proliferative Potential Colony Forming Cell (HPP-CFC) assay [Zsebo, et al., supra (1988)]. To investigate the effects of factors on early hematopoietic cells, the HPP-CFC assay system utilizes mouse bone marrow derived from animals 2 days after 5-fluorouracil (5-FU) treatment. […] The rat SCF is plated in the presence of CSF-1 or IL-6 in semi-solid agar cultures. The agar cultures contain McCoys complete medium (GIBCO), 20% fetal bovine serum, 0.3% agar, and 2×10^5 bone marrow cells/ml. The McCoys complete medium contains the following components: 1× McCoys medium supplemented with 0.1 mM pyruvate, 0.24× essential amino acids, 0.24× non-essential amino acids, 0.027% sodium bicarbonate, 0.24× vitamins, 0.72 mM glutamine, 25 μg/ml L-serine, and 12 μg/ml L-asparagine. The bone marrow cells are obtained from Balb/c mice injected i.v. with 150 mg/kg 5-FU. The femurs are harvested 2 days post 5-FU treatment of the mice and bone marrow is flushed out. The red blood cells are lysed with red blood cell lysing reagent (Becton Dickenson) prior to plating. Test substances are plated with the above mixture in 30 mm dishes. Fourteen days later the colonies (>1 mm in diameter) which contain thousands of cells are scored. This assay was used throughout the purification of natural mammalian cell-derived rat SCF.

KG-1 = KG-1 soft agar cloning assay; format: cell-based, human; conditions: COS-1 supernatant
Experimental: Another activity of recombinant human SCF is the ability to cause proliferation in soft agar of the human acute myelogenous leukemia (AML) cell line, KG-1 (ATCC CCL 246). COS-1 supernatants from transfected cells were tested in a KG-1 agar cloning assay [Koeffler et al., Science, 200, 1153–1154 (1978)] essentially as described except cells were plated at 3000/ml.

mouse bone marrow cells = test: Pre-B cell colony formation in agar cultures; format: cell-based
Source text: The ability of recombinant rat SCF^1-164 (rrSCF^1-164), to act synergistically with IL-7 to enhance lymphoid cell proliferation was studied in agar cultures of mouse bone marrow. In this assay, the colonies formed with rrSCF^1-164 alone contained monocytes, neutrophils, and blast-cells, while the colonies stimulated by IL-7 alone or in combination with rrSCF^1-164 contained primarily pre-B cells. Pre-B cells, characterized as B220^+, sIg^−, cμ^+, were identified by FACS analysis of pooled cells using fluorescence-labeled antibodies to the B220 antigen [Coffman, Immunol. Rev., 69, 5 (1982)] and to surface Ig (FITC-goat anti-K, Southern Biotechnology Assoc., Birmingham, Ala.); and by analysis of cytospin slides for cytoplasmic μ expression using fluorescence-labeled antibodies (TRITC-goat anti-μ, Southern Biotechnology Assoc.,). Recombinant human IL-7 (rhIL-7) was obtained from Biosource International (Westlake Village, Calif.). When rrSCF^1-164 was added in combination with the pre-B cell growth factor IL-7, a synergistic increase in colony formation was observed (Table 16), indicating a stimulatory role of rrSCF^1-164 on early B cell progenitors.

normal human bone marrow = test: Human CFU-GM assay; format: cell-based; conditions: average of triplicate cultures; SCF = COS-1 supernatant 4 days after transfection

## SCF^1-137: E. coli human SCF analog, amino acids 1 to 137
[1]
  specific activity in the radioreceptor assay: full specific activity
UT-7 cells
  specific activity in the UT-7 assay: about 25 % of the value for SCF^1-164

## SCF^1-248: full length recombinant human stem cell factor formed in E. coli
UT-7 cells; final material after cation exchange chromatography
  activity in the UT-7 assay: no activity
UT-7 cells; material following anion exchange chromatography
  activity in the UT-7 assay: active

## SCF^11-164: E. coli human SCF analog, amino acids 11 to 164
[1]
  specific activity in the radioreceptor assay: negligible specific activity
UT-7 cells
  specific activity in the UT-7 assay: negligible specific activity

## V19.8 human SCF^1-162: recombinant human SCF amino acids 1–162, COS-1 supernatant
[2]
  activity in murine MC/9 assay: not active
Human bone marrow; 50 μl assayed
  Colony #/100,000 cells ± SD: 22 ± 3
Human bone marrow; 100 μl assayed
  Colony #/100,000 cells ± SD: 33 ± 7
Human bone marrow; COS-1 supernatants
  activity on human bone marrow: active on human bone marrow
[3]
  activity in murine HPP-CFC assay: not active
KG-1; 1.5 μl assayed
  Colony #/3000 Cells ± SD: 6 ± 6
KG-1; 3 μl assayed
  Colony #/3000 Cells ± SD: 6 ± 4
KG-1; 6 μl assayed
  Colony #/3000 Cells ± SD: 9 ± 5
KG-1; 12 μl assayed
  Colony #/3000 Cells ± SD: 8 ± 0
KG-1; 25 μl assayed, triplicate
  Colony #/3000 Cells ± SD: 14 ± 0

## hSCF: Recombinant human SCF tested in agar colony assays; form not stated at Table 13
Human bone marrow; agar colony assay, factors alone or combined
  Colony #/10^5 cells (14 Days): 0

## rhIL-7: Recombinant human IL-7 from Biosource International
Mouse bone marrow cells; 25 ng
  Colony Number per 5 × 10^4 mouse bone marrow cells plated: 4 ± 2
Mouse bone marrow cells; 50 ng
  Colony Number per 5 × 10^4 mouse bone marrow cells plated: 13 ± 6
Mouse bone marrow cells; 100 ng
  Colony Number per 5 × 10^4 mouse bone marrow cells plated: 18 ± 6
Mouse bone marrow cells; 200 ng, mean of triplicate dishes ± SD
  Colony Number per 5 × 10^4 mouse bone marrow cells plated: 21 ± 6

B1: CSF-1: human macrophage colony-stimulating factor (protein, UniProt P09603 33-554, looked up)
Macrophage colony-stimulating …: EEVSEYCSHMIGSGHLQSLQRLIDSQMETSCQITFEFVDQEQLKDPVCYLKKAFLLVQDIMEDTMRFRDNTPNAIAIVQLQELSLRLKSCFTKDYEEHDKACVRTFYETPLQLLEKVKNVFNETKNLLDKDWNIFSKNCNNSFAECSSQDVVTKPDCNCLYPKAIPSSDPASVSPHQPLAPSMAPVAGLTWEDSEGTEGSSLLPGEQPLHTVDPGSAKQRPPRSTCQSFEPPETPVVKDSTIGGSPQPRPSVGAFNPGMEDILDSAMGTNWVPEEASGEASEIPVPQGTELSPSRPGGGSMQTEPARPSNFLSASSPLPASAKGQQPADVTGTALPRVGPVRPTGQDWNHTPQKTDHPSALLRDPPEPGSPRISSLRPQGLSNPSTLSAQPQLSRSHSSGSVLPLGELEGRRSTRDRRSPAEPEGGPASEGAARPLPRFNSVPLTDTGHERQSEGSFSPQLQESVFHLLVPSVILVLLAVGGLLFYRWRRRSHQEPQRADSPLEQPEGSPLTQDDRQVELPV
Normal human bone marrow
  Colony #/100,000 cells (±SEM): 0
